# Key:
# [1] = test system: Kit1 (DNA, G4) AGGGAGGGCGCTGGGAGGAGGG; experiment: thiazole orange displacement (FID); conditions: 100 mM KCl; 10 mM LiCaco, pH 7.2; 1 μM DNA, 2 μM thiazole orange displaced
# [2] = test system: cMyc (DNA, G4) TGAGGGTGGGTAGGGTGGGTAA; experiment: thiazole orange displacement (FID); conditions: 100 mM KCl; 10 mM LiCaco, pH 7.2; 1 μM DNA, 2 μM thiazole orange displaced
# [3] = test system: 24TTG (labelled) (DNA, G4) TTGGGTTAGGGTTAGGGTTAGGGA; experiment: FRET melting; conditions: 100 mM KCl; 10 mM LiCac, pH 7.3; 0.2 μM DNA, 2 μM compound (1:10)
# [4] = test system: cMyc (DNA, G4) TGAGGGTGGGTAGGGTGGGTAA; experiment: fluorimetric titration (ligand emission); conditions: 100 mM KCl; 10 mM Tris, pH 7.4; 1:1 binding model
# [5] = test system: Bcl2 (labelled) (DNA, G4) GGGCGCGGGAGGAATTGGGCGGG; experiment: FRET melting; conditions: 100 mM KCl; 10 mM LiCac, pH 7.3; 0.2 μM DNA, 2 μM compound (1:10)
# [6] = test system: HTelo (F21T-K / F21T-Na) (DNA, G4) GGGTTAGGGTTAGGGTTAGGG; experiment: FRET melting; conditions: 10 mM LiCac, pH 7.3, 0.2 μM DNA, 2 μM compound (1:10)
# [7] = test system: Kit2 (labelled) (DNA, G4) CGGGCGGGCGCGAGGGAGGGG; experiment: FRET melting; conditions: 100 mM KCl; 10 mM LiCac, pH 7.3; 0.2 μM DNA, 2 μM compound (1:10)
# [8] = test system: ds26 (DNA, duplex) CAATCGGATCGAATTCGATCCGATTG; experiment: fluorimetric titration (ligand emission); conditions: 100 mM KCl; 10 mM Tris, pH 7.4; 1:1 binding model
# [9] = test system: Kit1 (labelled) (DNA, G4) AGGGAGGGCGCTGGGAGGAGGG; experiment: FRET melting; conditions: 100 mM KCl; 10 mM LiCac, pH 7.3; 0.2 μM DNA, 2 μM compound (1:10)
# [10] = test system: Bcl2 (DNA, G4) GGGCGCGGGAGGAATTGGGCGGG; experiment: fluorimetric titration (ligand emission); conditions: 100 mM KCl; 10 mM Tris, pH 7.4; 1:1 binding model
# [11] = test system: Kit1 (DNA, G4) AGGGAGGGCGCTGGGAGGAGGG; experiment: fluorimetric titration (ligand emission); conditions: 100 mM KCl; 10 mM Tris, pH 7.4; 1:1 binding model
# [12] = test system: F21T-RNA (RNA, G4) GGGUUAGGGUUAGGGUUAGGG; experiment: FRET melting; conditions: 100 mM KCl; 10 mM LiCac, pH 7.3; 0.2 μM DNA, 2 μM compound (1:10)
# [13] = test system: ds26 (DNA, duplex) CAATCGGATCGAATTCGATCCGATTG; experiment: thiazole orange displacement (FID); conditions: 100 mM KCl; 10 mM LiCaco, pH 7.2; 1 μM DNA, 3 μM thiazole orange displaced
# [14] = test system: HTelo (HTelo22) (DNA, G4) AGGGTTAGGGTTAGGGTTAGGG; experiment: fluorimetric titration (ligand emission); conditions: 100 mM KCl; 10 mM Tris, pH 7.4; 1:1 binding model
# [15] = test system: HTelo (HTelo22) (DNA, G4) AGGGTTAGGGTTAGGGTTAGGG; experiment: thiazole orange displacement (FID); conditions: 100 mM KCl; 10 mM LiCaco, pH 7.2; 1 μM DNA, 2 μM thiazole orange displaced
# [16] = test system: TBA (labelled) (DNA, G4) GGTTGGTGTGGTTGG; experiment: FRET melting; conditions: 100 mM KCl; 10 mM LiCac, pH 7.3; 0.2 μM DNA, 1 μM compound (1:5)
# [17] = test system: ds26 (labelled) (DNA, duplex) CAATCGGATCGAATTCGATCCGATTG; experiment: FRET melting; conditions: 100 mM KCl; 10 mM LiCac, pH 7.3; 0.2 μM DNA, 2 μM compound (1:10)
# [18] = test system: 26TTA (labelled) (DNA, G4) TTAGGGTTAGGGTTAGGGTTAGGGTT; experiment: FRET melting; conditions: 100 mM KCl; 10 mM LiCac, pH 7.3; 0.2 μM DNA, 2 μM compound (1:10)
SMILES,DC50 [1],DC50 [2],ΔTm [3],Ka [4],ΔTm [5],ΔTm ([6]; 100 mM KCl),ΔTm ([6]; 100 mM NaCl),ΔTm [7],Ka [8],ΔTm [9],Ka [10],Ka [11],ΔTm [12],DC50 [13],Ka [14],DC50 [15],ΔTm [16],binding [17],ΔTm [18]
C[N+](C)(C)CCCOc1ccc(N(c2ccc(OCCC[N+](C)(C)C)cc2)c2ccc(-c3ccc4c(c3)C3(c5ccccc5-c5ccccc53)c3cc(-c5ccc(N(c6ccc(OCCC[N+](C)(C)C)cc6)c6ccc(OCCC[N+](C)(C)C)cc6)cc5)ccc3-4)cc2)cc1,3.00 µM,2.84 µM,< 12 °C,4.5(0.8)x10^5 M^-1,30.5 °C,> 35 °C,24.8 °C,27.9 °C,3.5(0.5)x10^5 M^-1,> 35 °C,5.4(0.5)x10^5 M^-1,4.0(0.4)x10^5 M^-1,> 26.5 °C,> 5 µM,> 10^7 M^-1,> 5 µM,19.4 °C,no,< 12 °C
O=S(=O)(O)CCCCOc1ccc(N(c2ccc(OCCCCS(=O)(=O)O)cc2)c2ccc(-c3ccc4c(c3)C3(c5ccccc5-c5ccccc53)c3cc(-c5ccc(N(c6ccc(OCCCCS(=O)(=O)O)cc6)c6ccc(OCCCCS(=O)(=O)O)cc6)cc5)ccc3-4)cc2)cc1,> 5 µM,> 5 µM,–,5.6(0.1)x10^4 M^-1,–,–,–,–,< 10^3 M^-1,–,5.5(0.3)x10^4 M^-1,< 10^3 M^-1,–,3.52 µM,7.2(2)x10^4 M^-1,> 5 µM,–,–,–
